Measurements taken from patent US12661342B2, “Heteroaryl compounds and therapeutic uses thereof in conditions associated with the alteration of the activity of beta-glucocerebrosidase” (GT GAIN THERAPEUTICS SA, priority 2019, dated 2026).

Biological target: T1, β-glucocerebrosidase (Homo sapiens, UniProt P04062, L483P)
T1 construct: host or cells: human Gaucher disease patient fibroblasts GM08760A
T1 sequence (P04062 40-536 L483P): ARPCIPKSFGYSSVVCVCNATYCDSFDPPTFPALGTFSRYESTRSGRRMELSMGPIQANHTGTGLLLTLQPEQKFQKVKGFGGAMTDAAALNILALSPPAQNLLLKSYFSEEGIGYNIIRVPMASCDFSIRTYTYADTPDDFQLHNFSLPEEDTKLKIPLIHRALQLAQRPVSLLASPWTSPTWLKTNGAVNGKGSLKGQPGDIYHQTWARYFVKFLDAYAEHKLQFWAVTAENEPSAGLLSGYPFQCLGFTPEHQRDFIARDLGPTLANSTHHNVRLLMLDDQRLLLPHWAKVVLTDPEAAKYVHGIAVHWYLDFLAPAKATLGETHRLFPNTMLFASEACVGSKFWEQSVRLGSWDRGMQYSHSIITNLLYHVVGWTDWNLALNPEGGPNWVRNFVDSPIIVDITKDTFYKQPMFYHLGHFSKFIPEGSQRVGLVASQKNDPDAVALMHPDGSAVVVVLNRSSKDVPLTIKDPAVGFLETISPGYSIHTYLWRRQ
Assay: Enhancement of β-glucocerebrosidase activity measured in Gaucher disease fibroblasts (4-MU-β-D-glucopyranoside substrate, intact cells)
Format: cell-based
Set-up: key: Increase in comparison with non-treated of >2.0 fold is shown as A; Increase in comparison with non-treated of >1.7-2.0 fold is shown as B; Increase in comparison with non-treated of 1.2-1.7 fold is shown as C; D means that no increase compared with non-treated cells was detected in this method
Settings: GBA fibroblasts bearing L444P (GM08760A, homozygous p.L444P); compound at concentrations between 6 and 50 μM; 4 days incubation
Summary of the method: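 Patient fibroblasts homozygous for p.L444P (GM08760A), grown in DMEM/10% FBS and exposed to compound for 4 days. Intact cells then given 4-MU-β-D-glucopyranoside in 0.1 M acetate pH 4, 1 h, 37 °C; stopped at pH 10.7, 4-MU fluorescence ex 340/em 460. Value is fold increase over untreated cells; binned at 6–50 μM.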

Question: Which “Range: increase in enzyme activity in comparison with non-treated cells (Enzyme activity assay for compounds of Examples 33-141)” value does the source give for `COc1cccc(Nc2cc(N)cc(C(=O)NC3Cc4ccccc4C3)n2)c1` [Example 100, 4-Amino-N-(2,3-dihydro-1H-inden-2-yl)-6-((3-methoxyphenyl)amino)picolinamide] here?
Answer: A (Increase in comparison with non-treated of >2.0 fold is shown as A)

Question: Which “Range: increase in enzyme activity in comparison with non-treated cells (Enzyme activity assay for compounds of Examples 33-141)” value does the source give for `Nc1cc(Nc2ccccc2Cl)nc(C(=O)NC2Cc3ccccc3C2)c1` [Example 101, 4-Amino-6-((2-chlorophenyl)amino)-N-(2,3-dihydro-1H-inden-2-yl)picolinamide] here?
Answer: B (Increase in comparison with non-treated of >1.7-2.0 fold is shown as B)

Question: For `Nc1cc(Nc2cccnc2)nc(C(=O)NC2Cc3ccccc3C2)c1` [Example 102, 4-Amino-N-(2,3-dihydro-1H-inden-2-yl)-6-(pyridin-3-ylamino)picolinamide], which “Range: increase in enzyme activity in comparison with non-treated cells (Enzyme activity assay for compounds of Examples 33-141)” value is on record?
Answer: C (Increase in comparison with non-treated of 1.2-1.7 fold is shown as C)

Question: With `Nc1cc(Nc2ccccc2F)nc(C(=O)N2Cc3ccccc3C2)c1` [Example 103, (6-(2-Fluorophenylamino)-4-aminopyridin-2-yl)(isoindolin-2-yl)methanone] as the molecule, how does the “Range: increase in enzyme activity in comparison with non-treated cells (Enzyme activity assay for compounds of Examples 33-141)” value read?
Answer: C (Increase in comparison with non-treated of 1.2-1.7 fold is shown as C)

Question: For `Nc1cc(Nc2ccccc2O)nc(C(=O)N2Cc3ccccc3C2)c1` [Example 104, (4-Amino-6-((2-hydroxyphenyl)amino)pyridin-2-yl)(isoindolin-2-yl)methanone], which “Range: increase in enzyme activity in comparison with non-treated cells (Enzyme activity assay for compounds of Examples 33-141)” value is on record?
Answer: C (Increase in comparison with non-treated of 1.2-1.7 fold is shown as C)

Question: Which “Range: increase in enzyme activity in comparison with non-treated cells (Enzyme activity assay for compounds of Examples 33-141)” value does the source give for `Nc1cc(Nc2cccc(F)c2)nc(C(=O)N2CCN(c3ccccc3)CC2)c1` [Example 105, (4-Amino-6-((3-fluorophenyl)amino)pyridin-2-yl)(4-phenylpiperazin-1-yl)methanone] here?
Answer: B (Increase in comparison with non-treated of >1.7-2.0 fold is shown as B)

Question: Which “Range: increase in enzyme activity in comparison with non-treated cells (Enzyme activity assay for compounds of Examples 33-141)” value does the source give for `COc1ccccc1Nc1cc(N)cc(C(=O)N(C)C2Cc3ccccc3C2)n1` [Example 106, 4-Amino-N-(2,3-dihydro-1H-inden-2-yl)-6-((2-methoxyphenyl)amino)-N-methyl-picolinamide] here?
Answer: C (Increase in comparison with non-treated of 1.2-1.7 fold is shown as C)

Question: With `CN(C(=O)c1cc(N)cc(Nc2cccc(F)c2)n1)C1Cc2ccccc2C1` [Example 107, 4-Amino-N-(2,3-dihydro-1H-inden-2-yl)-6-((3-fluorophenyl)amino)-N-methylpicolinamide] as the molecule, how does the “Range: increase in enzyme activity in comparison with non-treated cells (Enzyme activity assay for compounds of Examples 33-141)” value read?
Answer: C (Increase in comparison with non-treated of 1.2-1.7 fold is shown as C)

Question: For `Cc1c(F)cccc1Nc1cc(N)cc(C(=O)NC2Cc3ccccc3C2)n1` [Example 108, 4-Amino-N-(2,3-dihydro-1H-inden-2-yl)-6-((3-fluoro-2-methylphenyl)amino)picolinamide], which “Range: increase in enzyme activity in comparison with non-treated cells (Enzyme activity assay for compounds of Examples 33-141)” value is on record?
Answer: B (Increase in comparison with non-treated of >1.7-2.0 fold is shown as B)

Question: `Nc1cc(Nc2cc(F)cc(F)c2)nc(C(=O)NC2Cc3ccccc3C2)c1` [Example 109, 4-Amino-6-((3,5-difluorophenyl)amino)-N-(2,3-dihydro-1H-inden-2-yl)picolinamide] was tested. Which “Range: increase in enzyme activity in comparison with non-treated cells (Enzyme activity assay for compounds of Examples 33-141)” value did it give?
Answer: A (Increase in comparison with non-treated of >2.0 fold is shown as A)

Question: With `CN(C(=O)c1cc(N)cc(Nc2ccccc2O)n1)c1ccccc1` [Example 110, 4-Amino-6-((2-hydroxyphenyl)amino)-N-methyl-N-phenylpicolinamide] as the molecule, how does the “Range: increase in enzyme activity in comparison with non-treated cells (Enzyme activity assay for compounds of Examples 33-141)” value read?
Answer: C (Increase in comparison with non-treated of 1.2-1.7 fold is shown as C)

Question: `Nc1cc(Nc2ccccc2F)nc(C(=O)Nc2ccc3c(c2)OCCO3)c1` [Example 111, 4-Amino-N-(2,3-dihydrobenzo[b][1,4]dioxin-6-yl)-6-((2-fluorophenyl)amino)picolinamide] was tested. Which “Range: increase in enzyme activity in comparison with non-treated cells (Enzyme activity assay for compounds of Examples 33-141)” value did it give?
Answer: A (Increase in comparison with non-treated of >2.0 fold is shown as A)

Question: Which “Range: increase in enzyme activity in comparison with non-treated cells (Enzyme activity assay for compounds of Examples 33-141)” value does the source give for `Nc1cc(Nc2cccc(O)c2)nc(C(=O)NC2Cc3ccccc3C2)c1` [Example 112, 4-Amino-N-(2,3-dihydro-1H-inden-2-yl)-6-((3-hydroxyphenyl)amino)picolinamide] here?
Answer: A (Increase in comparison with non-treated of >2.0 fold is shown as A)

Question: Which “Range: increase in enzyme activity in comparison with non-treated cells (Enzyme activity assay for compounds of Examples 33-141)” value does the source give for `COc1ccccc1Nc1cc(N)cc(C(=O)N(C)c2ccccc2)n1` [Example 113, 6-(2-Methoxyphenylamino)-4-amino-N-methyl-N-phenylpyridine-2-carboxamide] here?
Answer: C (Increase in comparison with non-treated of 1.2-1.7 fold is shown as C)

Question: For `CN(C(=O)c1cc(N)cc(Nc2ccccc2F)n1)c1ccccc1` [Example 114, 4-Amino-6-((2-fluorophenyl)amino)-N-methyl-N-phenylpicolinamide], which “Range: increase in enzyme activity in comparison with non-treated cells (Enzyme activity assay for compounds of Examples 33-141)” value is on record?
Answer: D

Question: Which “Range: increase in enzyme activity in comparison with non-treated cells (Enzyme activity assay for compounds of Examples 33-141)” value does the source give for `CN(C(=O)c1cc(N)cc(Nc2cccc(F)c2)n1)c1ccccc1` [Example 115, 6-(3-Fluorophenylamino)-4-amino-N-methyl-N-phenylpyridine-2-carboxamide] here?
Answer: C (Increase in comparison with non-treated of 1.2-1.7 fold is shown as C)

Question: Which “Range: increase in enzyme activity in comparison with non-treated cells (Enzyme activity assay for compounds of Examples 33-141)” value does the source give for `Nc1cc(Nc2cccc(F)c2)nc(C(=O)N2Cc3ccccc3C2)c1` [Example 116, (6-(3-Fluorophenylamino)-4-aminopyridin-2-yl)(isoindolin-2-yl)methanone] here?
Answer: C (Increase in comparison with non-treated of 1.2-1.7 fold is shown as C)

Question: For `Nc1cc(Nc2cccc3c2OCO3)cc(C(=O)NC2Cc3ccccc3C2)n1` [Example 123, 6-Amino-4-(benzo[d][1,3]dioxol-4-ylamino)-N-(2,3-dihydro-1H-inden-2-yl)picolinamide], which “Range: increase in enzyme activity in comparison with non-treated cells (Enzyme activity assay for compounds of Examples 33-141)” value is on record?
Answer: C (Increase in comparison with non-treated of 1.2-1.7 fold is shown as C)

Question: With `Nc1cc(Nc2ccccc2O)nc(C(=O)N2CCN(c3ccccc3)CC2)n1` [Example 125, (4-Amino-6-((2-hydroxyphenyl)amino)pyrimidin-2-yl)(4-phenylpiperazin-1-yl)methanone] as the molecule, how does the “Range: increase in enzyme activity in comparison with non-treated cells (Enzyme activity assay for compounds of Examples 33-141)” value read?
Answer: C (Increase in comparison with non-treated of 1.2-1.7 fold is shown as C)

Question: How did the “Range: increase in enzyme activity in comparison with non-treated cells (Enzyme activity assay for compounds of Examples 33-141)” value turn out when `Nc1nc(Nc2ccccc2O)nc(C(=O)NC2CCc3ccccc3C2)n1` (stereo not drawn) [Example 126, 4-Amino-6-((2-hydroxyphenyl)amino)-N-(1,2,3,4-tetrahydronaphthalen-2-yl)-1,3,5-triazine-2-carboxamide] was run?
Answer: C (Increase in comparison with non-treated of 1.2-1.7 fold is shown as C)

Question: With `Nc1cc(Nc2ccccc2O)cc(C(=O)NC2CCc3ccccc3C2)n1` (stereo not drawn) [Example 127, 6-Amino-4-((2-hydroxyphenyl)amino)-N-(1,2,3,4-tetrahydronaphthalen-2-yl)picolinamide] as the molecule, how does the “Range: increase in enzyme activity in comparison with non-treated cells (Enzyme activity assay for compounds of Examples 33-141)” value read?
Answer: B (Increase in comparison with non-treated of >1.7-2.0 fold is shown as B)
